#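 Assay format: 96-well plates, 48-hour exposure. Abbreviation: GI50, concentration required for 50% inhibition of growth. At the TGI there is no net growth.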
# Assays:
# Assay in all cases: NCI anticancer screen, dose series, 48 h
# ACHN renal = system: ACHN renal
# NCI-H522 lung = system: NCI-H522 lung
# MOLT-4 leukemia = system: MOLT-4 leukemia
# NCI/ADR-RES ovarian = system: NCI/ADR-RES ovarian
# SNB-19 CNS = system: SNB-19 CNS
# RXF 393 renal = system: RXF 393 renal
# COLO 205 colon = system: COLO 205 colon
# OVCAR-5 ovarian = system: OVCAR-5 ovarian
# BT-549 breast = system: BT-549 breast
# SK-MEL-2 melanoma = system: SK-MEL-2 melanoma
# SF-539 CNS = system: SF-539 CNS
# A549 NSCLC = system: A549 NSCLC
# EKVX NSCLC = system: EKVX NSCLC
# TK-10 renal = system: TK-10 renal
# NCI-H226 lung = system: NCI-H226 lung
# CAKI-1 renal = system: CAKI-1 renal
# OVCAR-3 ovarian = system: OVCAR-3 ovarian
# UO-31 renal = system: UO-31 renal
# SK-MEL-5 melanoma = system: SK-MEL-5 melanoma
# SR leukemia = system: SR leukemia
# HS 578T breast = system: HS 578T breast
# PC-3 prostate = system: PC-3 prostate
# UACC-62 melanoma = system: UACC-62 melanoma
# OVCAR-8 ovarian = system: OVCAR-8 ovarian
# MDA-MB-435 = system: MDA-MB-435
# SNB-75 CNS = system: SNB-75 CNS
# HOP-62 NSCLC = system: HOP-62 NSCLC
# MDA-MB-231 breast = system: MDA-MB-231 breast
# HT29 colon = system: HT29 colon
smiles,measurement,setting,value
CC1=NN(c2nc(N)nc(/C=C\c3ccccc3)n2)C(C)(C)C1,GI50,ACHN renal,9.46 µM
same,TGI,ACHN renal,28.4 µM
same,GI50,NCI-H522 lung,3.14 µM
same,TGI,NCI-H522 lung,13.5 µM
same,GI50,MOLT-4 leukemia,13 µM
same,TGI,MOLT-4 leukemia,40.7 µM
same,GI50,NCI/ADR-RES ovarian,3.75 µM
same,TGI,NCI/ADR-RES ovarian,24.7 µM
same,GI50,SNB-19 CNS,20.3 µM
same,TGI,SNB-19 CNS,42.9 µM
same,GI50,RXF 393 renal,5.8 µM
same,TGI,RXF 393 renal,20.1 µM
same,GI50,COLO 205 colon,2.84 µM
same,TGI,COLO 205 colon,14 µM
same,GI50,OVCAR-5 ovarian,20.7 µM
same,TGI,OVCAR-5 ovarian,36.5 µM
same,GI50,BT-549 breast,5.09 µM
same,TGI,BT-549 breast,19.1 µM
same,GI50,SK-MEL-2 melanoma,11.2 µM
same,TGI,SK-MEL-2 melanoma,30.6 µM
same,GI50,SF-539 CNS,6.25 µM
same,TGI,SF-539 CNS,22.4 µM
same,GI50,A549 NSCLC,15.8 µM
same,TGI,A549 NSCLC,38.3 µM
same,GI50,EKVX NSCLC,12.5 µM
same,TGI,EKVX NSCLC,45.8 µM
same,GI50,TK-10 renal,7.76 µM
same,TGI,TK-10 renal,22.2 µM
same,GI50,NCI-H226 lung,13.7 µM
same,TGI,NCI-H226 lung,28.6 µM
same,GI50,CAKI-1 renal,15.4 µM
same,TGI,CAKI-1 renal,30.9 µM
same,GI50,OVCAR-3 ovarian,3.73 µM
same,TGI,OVCAR-3 ovarian,16.1 µM
same,GI50,UO-31 renal,13.5 µM
same,TGI,UO-31 renal,28.5 µM
same,GI50,SK-MEL-5 melanoma,16 µM
same,TGI,SK-MEL-5 melanoma,32.3 µM
same,GI50,SR leukemia,6.12 µM
same,TGI,SR leukemia,27.8 µM
same,GI50,HS 578T breast,13.5 µM
same,TGI,HS 578T breast,77.5 µM
same,GI50,PC-3 prostate,4.41 µM
same,TGI,PC-3 prostate,19.7 µM
same,GI50,UACC-62 melanoma,3.88 µM
same,TGI,UACC-62 melanoma,16.4 µM
same,GI50,OVCAR-8 ovarian,5.33 µM
same,TGI,OVCAR-8 ovarian,39 µM
same,GI50,MDA-MB-435,1.97 µM
same,TGI,MDA-MB-435,7.13 µM
same,GI50,SNB-75 CNS,6.36 µM
same,TGI,SNB-75 CNS,25.6 µM
same,GI50,HOP-62 NSCLC,14.9 µM
same,TGI,HOP-62 NSCLC,29.7 µM
same,GI50,MDA-MB-231 breast,6.46 µM
same,TGI,MDA-MB-231 breast,22.5 µM
same,GI50,HT29 colon,2.47 µM
same,TGI,HT29 colon,14 µM
